# From article PMC5805504 (Oncotarget, 2017)
# How the values were obtained:
# [1] = test system: Calu6 human xenograft lung cancer model; assay: Calu6 in vivo xenograft cancer model; parameters: species or system athymic nude mice
# Procedure: Female athymic nude mice from Charles River weighing 22 to 26 grams were implanted subcutaneously in the flank with 1×10^7 cells in a 1:1 (v/v) mixture in matrigel. […] Tumor volumes and body weight were determined by electronic caliper every 2 to 3 days. Repeat measures analysis was utilized with log transformed data and the auto-regression (AR) method to determine the overall p-value for galunisertib growth curves relative to the vehicle control in both tumor models. […]
# [2] = test system: murine NK and CD8+ T cells; assay: TGFβ suppression of murine NK and CD8+ T cell cytokine secretion; assay type: cell-based, BALB/c mice; details: TGFβ1 10 ng/ml, 0.1 μM to 10 μM, ELISA
# Procedure: Mouse NK cells and CD8^+ T cells were purified from female BALB/C mouse splenocytes by magnetic antibody sorting (Miltenyi Biotec) following the manufacturer's instructions. After isolation, the cells were re-suspended separately in complete media (RPMI1640, 5% FBS, 10 mM HEPES, 1×NEAA, 1×L-Glu, sodium pyruvate, 1×Penn/Strep, 0.055 mM βME, 50 U/ml IL2) and plated in flat 96-well plates at 37°C for 5-7 days at a density of 5 × 10^4/well, in triplicate, and stimulated with Treg Suppression Inspector beads (Miltenyi Biotec, Cat# 130-093-627). Cells were cultured with or without TGFβ1 at 10 ng/ml. […] Cytokine release in supernatants was measured by ELISA (R&D, mouse Granzyme B: DY1865; mouse INFγ:3321-1H-6). One-way ANOVA with Dunnett's test was used to compare the TGFβ+Gal treatments to the TGFβ+DMSO treatment.
# [3] = test system: pSMAD in 13762 rat mammary carcinoma tumor; assay: 13762 rat tumor model, pSMAD in tumor tissue; assay type: in vivo, Fischer 344 rats; details: Table 4, read-out: IC50 of pSMAD (%CV)
# Procedure: (§1) Fischer 344 rats from Taconic Farms weighing 150 to 160 grams were acclimatized for 1 week prior to study initiation and had ad libitum access to food. Rats were shaved in the implant area then given a subcutaneous flank injection of 5 × 10^6 13762 rat mammary carcinoma cells in a 1:1 (v/v) mixture with Matrigel in media. […] Tumor, PBMCs, and plasma were collected at 0.5, 1, 1.5, 2, 4, 8, 16, and 24 hours for further analysis.
# (§2) For correlation of pSMAD modulation in 13762 rat mammary carcinoma tumors and PBMCs, data were normalized using an analysis of co-variance of log pSMAD versus log tSMAD and treatment group. The slope (b) from this analysis was used to normalize the pSMAD values using pSMAD/(tSMAD)^b. Percent inhibition was calculated by the following formula: 100-(y/x)*100 where y = normalized pSMAD value and x = mean normalized pSMAD in the vehicle control. Linear correlation was used to compare tumor and PBMC measurements. In addition, using a cutoff of 50%, a 2 × 2 contingency table analysis was performed using Fisher's exact test.
# [4] = second line glioblastoma; cited from earlier work
# [5] = parameters: method as in PMID 25424852; details: patients with glioblastoma; cited from earlier work
# TGFβRII = TGFβRII (Homo sapiens, UniProt P37173); assay: Autophosphorylation kinase assay
# Sequence of TGFβRII (P37173 23-567): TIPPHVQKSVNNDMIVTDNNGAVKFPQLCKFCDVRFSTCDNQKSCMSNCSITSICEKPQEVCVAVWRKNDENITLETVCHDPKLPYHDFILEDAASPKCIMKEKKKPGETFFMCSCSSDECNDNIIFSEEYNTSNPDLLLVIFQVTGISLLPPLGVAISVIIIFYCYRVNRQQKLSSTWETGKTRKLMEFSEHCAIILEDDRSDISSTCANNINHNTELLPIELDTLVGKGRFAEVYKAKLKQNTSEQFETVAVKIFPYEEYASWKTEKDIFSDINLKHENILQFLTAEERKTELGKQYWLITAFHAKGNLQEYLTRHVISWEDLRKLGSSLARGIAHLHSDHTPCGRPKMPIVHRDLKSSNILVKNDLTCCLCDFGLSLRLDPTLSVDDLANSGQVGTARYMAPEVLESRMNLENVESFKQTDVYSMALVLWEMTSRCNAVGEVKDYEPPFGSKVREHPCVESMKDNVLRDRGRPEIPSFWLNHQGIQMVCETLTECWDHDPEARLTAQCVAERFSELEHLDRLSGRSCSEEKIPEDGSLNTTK
# pSMAD in PBMC = assay: 13762 rat tumor model, ex vivo stimulated PBMC pSMAD; assay type: in vivo, Fischer 344 rats; details: Table 4, read-out: IC50 of pSMAD (%CV)
# Procedure: as §1
# Ex vivo stimulation and assessment of target modulation in PBMCs have been described in detail previously. Briefly, whole blood (2 to 3 mL) was collected by cardiac puncture from Fischer 344 rats and transferred to BD Vacutainer CPT sodium citrate tubes. PBMCs isolated from whole blood were stimulated with TGFβ1 at a final concentration of 100 pM at 37°C for one hour. Cells were washed with cold PBS and lysed in 50-100 μL of lysis buffer, and pSMAD and tSMAD levels were assessed by immunoblot assay as described above.
# as §2, with “Linear correlation was used to compare tumor and PBMC measurements. In addition, using a cutoff of 50%, a 2 × 2 contingency table analysis was performed using Fisher's exact test.” left out
# pSMAD in human PBMCs = test system: pSMAD in human PBMCs; parameters: method as in PMID 17453744; details: cited from earlier work
# [6] = test system: TGFβ ligand (SMAD2/3-responsive promoter); assay: Cell based luciferase reporter assay (SMAD2/3), TGFβ-stimulated HEK293_SMAD2/3 cells; details: Homo sapiens; TGFβ1 2 nM stimulated HEK293_SMAD2/3
# [7] = test system: human NK and CD8+ T cells; assay: TGFβ1 suppression of human NK and CD8+ T cell cytokine secretion; assay type: cell-based; details: TGFβ1 10 ng/ml, ELISA
# Procedure: Blood from healthy donors were obtained from the New York Blood Center. After isolation of PBMCs via high density gradient centrifugation with Ficoll-Paque, NK cells and CD8^+ T cells were purified from PBMCs by magnetic antibody sorting (Miltenyi Biotec) following the manufacturer's instructions. Purified CD8^+ T cells and NK cells were re-suspended separately in complete media (RPMI1640, 5% FBS, 10mM HEPES, 1×NEAA, 1×L-glu, sodium pyruvate, 1×penn/strep, 0.055 mM βME, 50 U/ml IL-2) and plated in 96-well plates at 37°C for 2 days at a density of 5 × 10^4/well, in triplicates. CD8^+ T cells were stimulated with human T cell activation/expansion beads (Miltenyi Biotec; 130-091-441), while NK cells were stimulated with the same beads plus 10 U/ml IL-2. Cells were cultured with or without TGFβ1 at 10 ng/ml. […] Cytokine release in supernatants was measured by ELISA (R&D; human Granzyme B: DY2906; human INFγ: DY285-05). One-way ANOVA with Dunnett's test was used to compare the TGFβ+Gal treatments to the TGFβ+DMSO treatment.
# KPC-M09 cells = assay: E-Cadherin assay / TGFβ1-mediated EMT in KPC-M09 cells; assay type: cell-based, mouse; details: 30 ng/ml TGFβ plus 2 μM or 10 μM, 48 hours
# Text: The primary mouse pancreatic ductal adenocarcinoma (PDAC) cell line KPC-M09 was derived from a pancreatic GEMM [KrasLSL-G12D/+; Trp53LSL-R172H/+; Ptf1aCre/+ (KPC)]. […] Cell morphological changes were imaged at 20X (bright field). Cells were stained with an anti-E-cadherin primary Ab (Cell Signaling, clone 24E10, diluted 1:200) followed with a secondary anti-rabbit Cy3 (Cell Signaling, diluted 1:500). DAPI was used as a counter stain and cells were imaged at 40X.
# [8] = test system: pSMAD in Calu6 and EMT6-LM2 tumors; assay: PK/PD profile from Calu6 and EMT6-LM2 in vivo target inhibition studies (statements not split by model); parameters: species or system mice
# Procedure for pSMAD in Calu6 tumors: For in vivo measurement of tumor cell pSMAD activity, tumors were harvested from mice at the indicated time points post-treatment, snap frozen in liquid nitrogen, then pulverized in lysis buffer [EDTA 5 mM, EGTA 5 mM, sodium pyrophosphate 30 mM, sodium chloride 6.7 mM, sodium fluoride 50 mM, and 1% triton in water, pH 7.4 with protease and phosphatase inhibitors (Sigma, p8340, p5726, p0044) and sodium orthovanadate 2.5 mM]. Protein concentration was estimated with DC protein assay kit (BioRad).
# Percent inhibition of normalized pSMAD2 levels was calculated by first determining the ratio of tSMAD to pSMAD values for the vehicle group. […] Percent inhibition for compound treated groups was determined relative to the minimum pSMAD inhibition of the vehicle group using the formula: [(100- (normalized pSMAD in the experimental treatment group/normalized pSMAD in the vehicle treated group)]. IC50 of pSMAD inhibition was calculated for the data using non-linear regression to fit the standard four parameter logistic model using GraphPad Prism 6.
# Female athymic nu/nu mice or immune competent syngenic BALB/c mice (Charles River or Taconic Farms, respectively, 22 to 28 grams) were maintained in microisolator cages, received food and water ad libitum, and were quarantined for 1 week before experimental manipulation. Sub-confluent Calu6 human non-small cell lung cancer (NSCLC) cells were injected subcutaneously in the flank of nude mice (1x 10^7cells/per animal) in 0.2 mL of culture medium mixed with Matrigel (BD Biosciences, 1:1 v/v). EMT6-LM2 murine triple negative breast cancer tumor cells (5 × 10^5 cells/per animal in the absence of matrigel) were implanted on the flank of BALB/c mice. EMT6-LM2 cells were generated from parental EMT6 cells which were passaged twice from spontaneous lung metastases (LM) following subcutaneous growth. When the tumor volume reached ~250 mm^3, mice were randomized and separated into treatment groups.
# Tumors and plasma were collected 2 hours post dosage for analysis of pSMAD and compound levels.
# Tumors and plasma were collected at the indicated time points (0.5, 1, 1.5, 2, 4, 8, and 16 hours) for analysis of pSMAD and compound levels.
# Percent target inhibition was calculated as described above then was modeled as a function of either dose or plasma concentration.
structure (smiles),measurement,setting,value
"Cc1cccc(-c2nn3c(c2-c2ccnc4ccc(C(N)=O)cc24)CCC3)n1.O [galunisertib, 4-[2-(6-methylpyridin-2-yl)-5,6-dihydro-4H-pyrrolo[1,2-b]pyrazol-3-yl]quinoline-6-carboxamide monohydrate]",tumor growth delay,"[1]; 75 mg/kg twice daily oral gavage, 500 mm^3 crossing time, p = 0.034",8.3 ± 2.6 days
same,body weight,"[1]; 75 mg/kg twice daily, data not shown",No body weight loss
same,TGFβ1 suppression of IFNγ and granzyme B secretion,[2],prevented the suppression of IFNγ and granzyme B secretion
same,IC50,[3],0.719 µM
same,"clinical outcome versus lomustine, phase II",[4],failed to show improvement over lomustine
same,"clinical activity, phase I",[5],promising activity
same,IC50,TGFβRII,2 µM
same,pSMAD inhibition at maximum plasma exposure,"pSMAD in Calu6 tumors; Calu6, at 30 minutes",~ 70%
same,"TED50, total effective dose to inhibit 50% pSMAD","pSMAD in Calu6 tumors; Calu6, single oral dose, tumors 2 hours post dosage",15.6 mg/kg
same,maximum plasma exposure,"pSMAD in Calu6 tumors; Calu6 time course, single oral dose",up to 6 μM
same,IC50,pSMAD in PBMC,1.96 µM
same,pSMAD in human PBMCs ex vivo,pSMAD in human PBMCs,inhibit pSMAD
same,IC50,[6],0.221 µM
same,TGFβ1 suppression of IFNγ and granzyme B secretion,[7],prevented the suppression of IFNγ and granzyme B secretion
same,"TGFβ1-mediated EMT (epithelial morphology, membrane E-cadherin)",KPC-M09 cells,prevented TGFβ1-mediated EMT
same,TED90,"[8]; oral, data not shown",75 mg/kg
same,target inhibition in vivo over 12 hours,[8]; single oral dose with an exposure of […]-5 μM,≥ 20%
